{"source": "patent US7064120B2", "about": "“Tricyclic pyridyl carboxamides and derivatives thereof tocolytic oxytocin receptor antagonists” (Wyeth, priority 2001, dated 2006)", "target": "T1, human oxytocin receptor (Homo sapiens, UniProt P30559)", "T1 construct": "host or cells: CHO cells, stably transfected (pcDNA3.1 vector)", "T1 sequence (P30559 1-389)": "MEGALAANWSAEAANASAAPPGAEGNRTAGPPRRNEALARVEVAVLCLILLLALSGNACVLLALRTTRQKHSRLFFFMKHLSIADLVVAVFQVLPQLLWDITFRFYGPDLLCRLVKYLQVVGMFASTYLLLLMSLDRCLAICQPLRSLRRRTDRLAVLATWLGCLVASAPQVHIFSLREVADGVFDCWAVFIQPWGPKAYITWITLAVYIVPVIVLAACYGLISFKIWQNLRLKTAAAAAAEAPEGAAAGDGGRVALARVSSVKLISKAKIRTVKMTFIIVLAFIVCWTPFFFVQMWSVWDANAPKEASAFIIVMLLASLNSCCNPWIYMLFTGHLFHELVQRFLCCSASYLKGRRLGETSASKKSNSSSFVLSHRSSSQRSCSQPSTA", "assay": "Oxytocin binding in CHO cell membranes expressing human oxytocin receptors ([3H]oxytocin radioligand binding)", "settings": "for IC50: value in parentheses, read-out: OT (IC50); for inhibition at 0.1 µM: 100 nM, read-out: OT % inhibition @ 100 nM", "method_in_brief": "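CHO membranes expressing human oxytocin receptor (25–50 μg protein/well) incubated 60 min at room temperature with [3H]oxytocin in Tris-HCl pH 7.4 buffer with MgCl2, BSA and protease inhibitors. Filtration and scintillation counting; reported as % inhibition at a stated concentration or nM IC50.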", "data": [{"smiles": "COc1ccccc1-c1ccc(C(=O)N2Cc3ccc(C(=O)N(C)Cc4cccnc4)n3Cc3ccccc32)cc1C", "note": "[Example 101, 10-[(2′-Methoxy-2-methyl-[1,1′-biphenyl]-4-yl)carbonyl]-N-methyl-N-(3-pyridinylmethyl)-10,11-dihydro-5H-pyrrolo[2,1-c][1,4]benzodiazepine-3-carboxamide]", "values": [{"measurement": "IC50", "value": 2.23, "unit": "nM"}]}, {"smiles": "COc1cccc(-c2ccc(C(=O)N3Cc4ccc(C(=O)N(C)Cc5cccnc5)n4Cc4ccccc43)cc2C)c1", "note": "[Example 102, 10-[(3′-Methoxy-2-methyl-[1,1′-biphenyl]4-yl)carbonyl]-N-methyl-N-(3-pyridinyImethyl)-10,11-dihydro-5H-pyrrolo[2,1-c][1,4]benzodiazepine-3-carboxamide]", "values": [{"measurement": "IC50", "value": 4.14, "unit": "nM"}]}, {"smiles": "COc1ccccc1-c1ccc(C(=O)N2Cc3ccc(C(=O)N(C)Cc4cccnc4)n3Cc3ccccc32)cc1OC", "note": "[Example 103, 10-[(2,2′-Dimethoxy-[1,1′-biphenyl]-4-yl)carbonyl]-N-methyl-N-(3-pyridinylmethyl)-10,11-dihydro-5H-pyrrolo[2,1-c][1,4]benzodiazepine-3-carboxamide]", "values": [{"measurement": "IC50", "value": 6.25, "unit": "nM"}]}, {"smiles": "COc1ccccc1-c1ccc(C(=O)N2Cc3ccc(C(=O)N(C)Cc4cccnc4)n3Cc3ccccc32)cc1", "note": "[Example 104, 10-[(2′-Methoxy-[1,1′-biphenyl]-4-yl)carbonyl]-N-methyl-N-(3-pyridinylmethyl)-10,11-dihydro-5H-pyrrolo[2,1-c][1,4]benzodiazepine-3-carboxamide]", "values": [{"measurement": "inhibition at 0.1 µM", "value": 99, "unit": "%"}]}, {"smiles": "Cc1ccccc1-c1ccc(C(=O)N2Cc3ccc(C(=O)N(C)Cc4cccnc4)n3Cc3ccccc32)cc1", "note": "[Example 105, N-Methyl-10-[(2′-methyl-[1,1′-biphenyl]-4-yl)carbonyl]-N-(3-pyridinylmethyl)-10,11-dihydro-5H-pyrrolo[2,1-c][1,4]benzodiazepine-3-carboxamide]", "values": [{"measurement": "inhibition at 0.1 µM", "value": -9, "unit": "%"}]}, {"smiles": "Cc1cc(C(=O)N2Cc3ccc(C(=O)N(C)Cc4cccnc4)n3Cc3ccccc32)ccc1-c1ccccc1C(F)(F)F", "note": "[Example 112, N-Methyl-10-{[2-methyl-2′-trifluoromethyl-[1,1′-biphenyl]-4-yl]carbonyl}-N-(3-pyridinylmethyl)-10,11-dihydro-5H-pyrrolo[2,1-c][1,4]benzodiazepine-3-carboxamide]", "values": [{"measurement": "IC50", "value": 3.87, "unit": "nM"}]}, {"smiles": "COc1ccccc1-c1ccc(C(=O)N2Cc3ccc(C(=O)N4CCN(c5ccncc5)CC4)n3Cc3ccccc32)cc1C", "note": "[Example 113, {10-[(2′-Methoxy-2-methyl-[1,1′-biphenyl]-4-yl)carbonyl]-10,11-dihydro-5H-pyrrolo[2,1-c][1,4]benzodiazepin-3-yl}[4-(4-pyridinyl)-1-piperazinyl]methanone]", "values": [{"measurement": "IC50", "value": 10.8, "unit": "nM"}]}]}
